Earlier results, collected in patent publication US20240122858A1, “MODIFIED-RELEASE DOSAGE FORMS OF RUXOLITINIB” (SLAYBACK PHARMA LLC, priority 2021, published 2024).

Question: Which permeability does the source give for `N#CC[C@H](C1CCCC1)n1cc(-c2ncnc3[nH]ccc23)cn1` [Ruxolitinib phosphate, (3R)-3-cyclopentyl-3-[4-(7H-pyrrolo[2,3-d]-pyrimidin-4-yl)-pyrazol-1-yl]-propanenitrile phosphate] here?
Answer: high permeability

Question: And the aqueous solubility (over a pH range of 1-8)?
Answer: high aqueous solubility

Question: With `N#CC[C@H](C1CCCC1)n1cc(-c2ncnc3[nH]ccc23)cn1` [Ruxolitinib] as the compound, how does the “solubility in aqueous buffers” value (free base) read?
Answer: sparingly soluble
